Measurements taken from ChEMBL document CHEMBL5233279, “d-Mannose binding, aggregation property, and antifungal activity of amide derivatives of pradimicin A” (Bioorg Med Chem, 2021).
Values after ≈ are worked out from the molar mass of the structure shown.

Assays:
[1] = tested on: Diutina rugosa; assay: Antifungal activity against Candida rugosa AJ14513 assessed as inhibition of fungal growth incubated for 48 hrs; assay type: functional
[2] = Binding affinity to methyl alpha-D-mannopyranoside (unknown origin) in MPOS buffer at pH 7.0 assessed as primary dissociation constant (Kd1) by ITC experiment
[3] = Binding affinity to methyl alpha-D-mannopyranoside (unknown origin) in MPOS buffer at pH 7.0 assessed as secondary dissociation constant (Kd2) by ITC experiment
[4] = Aggregation property of the compound in MPOS buffer at pH 7.0 assessed as compound remaining in supernatant incubated for 15 mins at 37 degreeC followed by 30 mins incubation at room temperature by HPLC based sedimentation assay relative to control; assay type: physicochemical; design: concentration or dose not given beside the values; details: pH 7, 0.75 h, time 45 min
[5] = Aggregation property of the compound in MPOS buffer at pH 7.0 assessed as compound remaining in supernatant at 1 mM incubated for 15 mins at 37 degreeC followed by 30 mins incubation at room temperature by HPLC based sedimentation assay relative to control; assay type: physicochemical; details: pH 7, 0.75 h, 1000 µM, time 45 min
[6] = Binding affinity to D-mannose (unknown origin) in MPOS buffer at pH 7.0 assessed as primary dissociation constant (Kd1) by ITC experiment
[7] = Binding affinity to D-mannose (unknown origin) in MPOS buffer at pH 7.0 assessed as secondary dissociation constant (Kd2) by ITC experiment
[8] = Aggregation property of the compound in MPOS buffer at pH 7.0 incubated for 15 mins at 37 degreeC followed by 30 mins incubation at room temperature by HPLC based sedimentation assay; assay type: physicochemical; details: pH 7, 0.75 h, time 45 min

Compound	MIC [1]	Kd [2]	Kd [3]	Activity [4]	Activity [5]	Kd [6]	Kd [7]	Activity [8]
CN[C@@H]1[C@H](O[C@@H]2OC[C@@H](O)[C@H](O)[C@H]2O)[C@@H](O)[C@H](O[C@H]2c3cc(C)c(C(=O)N[C@H](C)C(=O)NOC)c(O)c3-c3c(cc4c(c3O)C(=O)c3cc(OC)cc(O)c3C4=O)[C@@H]2O)O[C@@H]1C	16 µg/mL (≈ 18.4 µM)	360 µM	5300 µM	65%	–	–	–	–
CN[C@@H]1[C@H](O[C@@H]2OC[C@@H](O)[C@H](O)[C@H]2O)[C@@H](O)[C@H](O[C@H]2c3cc(C)c(C(=O)N[C@H](C)C(=O)N(C)OC)c(O)c3-c3c(cc4c(c3O)C(=O)c3cc(OC)cc(O)c3C4=O)[C@@H]2O)O[C@@H]1C	16 µg/mL (≈ 18.1 µM)	340 µM	5200 µM	65%	–	–	–	–
CN[C@@H]1[C@H](O[C@@H]2OC[C@@H](O)[C@H](O)[C@H]2O)[C@@H](O)[C@H](O[C@H]2c3cc(C)c(C(=O)N[C@H](C)C(N)=O)c(O)c3-c3c(cc4c(c3O)C(=O)c3cc(OC)cc(O)c3C4=O)[C@@H]2O)O[C@@H]1C	16 µg/mL (≈ 19.1 µM)	220 µM	5500 µM	–	> 60%	–	–	–
CN[C@@H]1[C@H](O[C@@H]2OC[C@@H](O)[C@H](O)[C@H]2O)[C@@H](O)[C@H](O[C@H]2c3cc(C)c(C(=O)N[C@H](C)C(=O)NO)c(O)c3-c3c(cc4c(c3O)C(=O)c3cc(OC)cc(O)c3C4=O)[C@@H]2O)O[C@@H]1C	8 µg/mL (≈ 9.35 µM)	75 µM	4300 µM	65%	–	100 µM	5500 µM	–
CN[C@@H]1[C@H](O[C@@H]2OC[C@@H](O)[C@H](O)[C@H]2O)[C@@H](O)[C@H](O[C@H]2c3cc(C)c(C(=O)N[C@H](C)C(=O)NN)c(O)c3-c3c(cc4c(c3O)C(=O)c3cc(OC)cc(O)c3C4=O)[C@@H]2O)O[C@@H]1C	16 µg/mL (≈ 18.7 µM)	300 µM	9800 µM	65%	–	–	–	–

Second part, the molecule after the results:

MIC [1]	Kd [2]	Kd [3]	Activity [4]	Activity [5]	Kd [6]	Kd [7]	Activity [8]	Compound
16 µg/mL (≈ 18.7 µM)	860 µM	6500 µM	–	> 60%	–	–	–	CNC(=O)[C@@H](C)NC(=O)c1c(C)cc2c(c1O)-c1c(cc3c(c1O)C(=O)c1cc(OC)cc(O)c1C3=O)[C@H](O)[C@H]2O[C@@H]1O[C@H](C)[C@H](NC)[C@H](O[C@@H]2OC[C@@H](O)[C@H](O)[C@H]2O)[C@H]1O
16 µg/mL (≈ 18.4 µM)	180 µM	3500 µM	65%	–	–	–	–	CN[C@@H]1[C@H](O[C@@H]2OC[C@@H](O)[C@H](O)[C@H]2O)[C@@H](O)[C@H](O[C@H]2c3cc(C)c(C(=O)N[C@H](C)C(=O)N(C)O)c(O)c3-c3c(cc4c(c3O)C(=O)c3cc(OC)cc(O)c3C4=O)[C@@H]2O)O[C@@H]1C
16 µg/mL (≈ 18.1 µM)	–	–	–	–	–	–	–	CN[C@@H]1[C@H](O[C@@H]2OC[C@@H](O)[C@H](O)[C@H]2O)[C@@H](O)[C@H](O[C@H]2c3cc(C)c(C(=O)N[C@H](C)C(=O)NCCO)c(O)c3-c3c(cc4c(c3O)C(=O)c3cc(OC)cc(O)c3C4=O)[C@@H]2O)O[C@@H]1C
4 µg/mL (≈ 4.76 µM)	96 µM	3800 µM	–	–	–	–	Active	CN[C@@H]1[C@H](O[C@@H]2OC[C@@H](O)[C@H](O)[C@H]2O)[C@@H](O)[C@H](O[C@H]2c3cc(C)c(C(=O)N[C@H](C)C(=O)O)c(O)c3-c3c(cc4c(c3O)C(=O)c3cc(OC)cc(O)c3C4=O)[C@@H]2O)O[C@@H]1C [PRADIMICIN A]
